Values joined by “and” are separate entries in the source; they are usually repeats but may differ in a detail not shown here. Equal values may be shown once. “Also recorded” adds a separate entry of the source. Marks after values point to notes of the source that are not given here.
Assays:
[1] = test system: SMARCA4-negative malignant rhabdoid tumor of ovary (SCCOHT); test: Phase 1 clinical activity, SMARCA4-negative malignant rhabdoid tumor of ovary (SCCOHT); type: in vivo, human; conditions: for Tumor size: person, 1600 mg BID oral tablet
Procedure: (§1) Table 2 describes a Phase 1 clinical trial design (sponsor protocol no.: E7438-G000-001, ClinicalTrials.gov identifier: NCT01897571). The study population included subjects with relapsed or refractory solid tumors or B-cell lymphoma. Subjects received a 3+3 dose-escalation in expansion cohorts receiving 800 mg BID and 1600 mg BID, respectively, or a cohort for ascertaining the effect of food on dosing at 400 mg BID. The primary endpoint was a determination of recommended phase II dose (RP2D)/maximum tolerated dose (MTD). Secondary endpoints included safety, pharmacokinetics (PK), pharmacodynamics (PD) and tumor response, assessed every 8 wks.

[2] = test system: SMARCA4-negative thoracic sarcoma; test: Phase 1 clinical activity, SMARCA4-negative thoracic sarcoma; type: in vivo, human; conditions: 1600 mg BID
Procedure: as §1

[3] = test system: Bin-67 xenograft tumors; test: SCCOHT xenograft model (Bin-67); type: in vivo
Procedure: EZH2 target inhibition was assessed by H3K27me3 levels in xenograft tissue collected on day 18 (FIG. 18B). Each point represents the ratio of H3K27me3 to total H3 from the tumor of a single animal.

[4] = test system: JHOC-5, TYKNU, PA-1, OAW42, ES-2, COV362 cell lines; test: Long-term proliferation assays, single-deficient or WT ovarian cell lines; type: cell-based
[5] = test system: G401 xenograft
[6] = test system: H3K27me3 in INI1- and SMARCA4-negative tumors; test: Pharmacodynamic H3K27me3 inhibition in tumor tissue of patients; type: in vivo, human
[7] = test system: Dual SMARCA2 and SMARCA4 deficient ovarian cell lines; conditions: four SMARCA2-deficient and SMARCA4-deficient cell lines
[8] = human, in vivo
Procedure: as §1

[9] = test system: cell lines and xenografts deficient in INI1 (SNF5/SMARCB1); conditions: Knutson et al. PNAS 2013; cited from earlier work
[10] = test system: TOV112D xenograft tumors; test: SCCOHT xenograft model (TOV112D); type: in vivo
Procedure: EZH2 target inhibition was measured by H3K27me3 levels in xenograft tissue collected on day 14 (FIG. 20B). Each point represents the ratio of H3K27me3 to total H3 from the tumor of a single animal.

[11] = test system: INI1-negative malignant rhabdoid tumor; test: Phase 1 clinical activity, INI1-negative malignant rhabdoid tumor; type: in vivo, human; conditions: for Best Response / Time on study: INI1-negative malignant rhabdoid tumor
Procedure: as §1

[12] = test system: MRT and MRTO/SCCOHT; test: Assessment of clinical activity in MRT and MRTO/SCCOHT; type: in vivo, human; conditions: MRT and MRTO/SCCOHT following treatment
[13] = Oral bioavailability; conditions: in vivo
[14] = test system: INI1-negative epithelioid sarcoma; test: Phase 1 clinical activity, INI1-negative epithelioid sarcoma; type: in vivo, human
Procedure: as §1

[15] = test system: COV434 xenograft tumors; test: SCCOHT xenograft model (COV434); type: in vivo
Procedure: After day 28, a portion of the COV434 xenograft cohort were retained to monitor for tumor regrowth while under no treatment, of which there was none. EZH2 target inhibition was assessed by H3K27me3 levels in xenograft tissue collected on day 28 (FIG. 19B). Each point represents the ratio of H3K27me3 to total H3 from the tumor of a single animal.

[16] = 800 mg BID, + = remains on study

## CCN(c1cc(-c2ccc(CN3CCOCC3)cc2)cc(C(=O)NCc2c(C)cc(C)[nH]c2=O)c1C)C1CCOCC1 [tazemetostat]
[1]; Phase 1, two patients with SCCOHT (SMARCA4-negative)
  clinical activity: Clinical activity was observed
[1]; SMARCA4-negative SCCOHT, 1600 mg BID
  Best Response: PR week 8*; also recorded: SD week 8
[1]; SMARCA4-negative SCCOHT, 1600 mg BID, + = remains on study
  Time on study: 25+ weeks and 26+ weeks
[1]; after 8 weeks
  Tumor size: decreased from baseline
[1]; after 16 weeks
  Tumor size: further decreased from the 8 week measurement
[2]
  Best Response: PD week 5
  Time on study: 6 weeks
[3]; after 18 days
  tumor volume compared to vehicle: statistically significant differences in volume compared to vehicle
[3]; after 18 days of treatment
  H3K27me3 in xenograft tumors: reduction of H3K27me3
[4]
  sensitivity: Lower sensitivity
[5]
  antitumor activity: antitumor activity
[6]
  pharmacodynamics inhibition of HeK27me3 in tumor tissue: induces pharmacodynamics inhibition of HeK27me3
[7]
  inhibition of cell growth: Dose-dependent inhibition of cell growth
[8]
  Anemia, All Events, All Grades: 7
  Anemia, All Events, Grade n: 1
  Anemia, All Treatment-Related, All Grades: 3
  Anemia, All Treatment-Related, Grade n: 0
  Asthenia, All Events, All Grades: 28
  Asthenia, All Events, Grade n: 1
  Asthenia, All Treatment-Related, All Grades: 12
  Asthenia, All Treatment-Related, Grade n: 0
  Constipation, All Events, All Grades: 7
  Constipation, All Events, Grade n: 0
  Constipation, All Treatment-Related, All Grades: 2
  Constipation, All Treatment-Related, Grade n: 0
  Decreased appetite, All Events, All Grades: 11
  Decreased appetite, All Events, Grade n: 3
  Decreased appetite, All Treatment-Related, All Grades: 3
  Decreased appetite, All Treatment-Related, Grade n: 1
  Dysgeusia, All Events, All Grades: 5
  Dysgeusia, All Events, Grade n: 0
  Dysgeusia, All Treatment-Related, All Grades: 5
  Dysgeusia, All Treatment-Related, Grade n: 0
  Dyspnea, All Events, All Grades: 8
  Dyspnea, All Events, Grade n: 0
  Dyspnea, All Treatment-Related, All Grades: 0
  Dyspnea, All Treatment-Related, Grade n: 0
  Elevated LFTs, All Events, All Grades: 2
  Elevated LFTs, All Events, Grade n: 1
  Elevated LFTs, All Treatment-Related, All Grades: 0
  Elevated LFTs, All Treatment-Related, Grade n: 1
  Hypertension, All Events, All Grades: 3
  Hypertension, All Events, Grade n: 1
  Hypertension, All Treatment-Related, All Grades: 1
  Hypertension, All Treatment-Related, Grade n: 1
  Muscle Spasms, All Events, All Grades: 5
  Muscle Spasms, All Events, Grade n: 0
  Muscle Spasms, All Treatment-Related, All Grades: 2
  Muscle Spasms, All Treatment-Related, Grade n: 0
  Nausea, All Events, All Grades: 8
  Nausea, All Events, Grade n: 0
  Nausea, All Treatment-Related, All Grades: 7
  Nausea, All Treatment-Related, Grade n: 0
  Neutropenia, All Events, All Grades: 2
  Neutropenia, All Events, Grade n: 1
  Neutropenia, All Treatment-Related, All Grades: 1
  Neutropenia, All Treatment-Related, Grade n: 1
  Thrombocytopenia, All Events, All Grades: 10
  Thrombocytopenia, All Events, Grade n: 2
  Thrombocytopenia, All Treatment-Related, All Grades: 6
  Thrombocytopenia, All Treatment-Related, Grade n: 1
  Vomiting, All Events, All Grades: 6
  Vomiting, All Events, Grade n: 0
  Vomiting, All Treatment-Related, All Grades: 3
  Vomiting, All Treatment-Related, Grade n: 0
[9]
  sensitivity of INI1-deficient cell lines and xenografts: profound sensitivity and durable regressions
[10]; 14 days, twice daily
  tumor volume compared to vehicle: statistically significant differences in volume compared to vehicle
[10]; after 14 days of treatment
  H3K27me3 in xenograft tumors: reduction of H3K27me3
[11]; 400 mg BID
  Best Response: SD week 8
[11]; 400 mg BID, + = remains on study
  Time on study: 12+ weeks
[11]; 800 mg BID
  Best Response: complete remission (CR); also recorded: CR week 8*; also recorded: PD week 8
[11]; [16]
  Time on study: 65+ weeks and 35 weeks
[11]; 1600 mg BID
  Time on study: 16 weeks and 17 weeks
[11]; patient with INI1-negative (IHC) relapsed malignant rhabdoid tumor, Phase 1
  response: complete response
[12]
  clinical activity: stable disease for at least six months, partial remission or complete remission
[13]
  oral bioavailability: orally bioavailable
[14]; 400 mg BID
  Best Response: PD week 8
  Time on study: 11 weeks
[14]; 800 mg BID
  Best Response: partial remission (PR); also recorded: PR week 8; also recorded: SD week 8
[14]; [16]
  Time on study: 25+ weeks and 24+ weeks
[15]; after 28 days
  tumor volume compared to vehicle: statistically significant differences in volume compared to vehicle
[15]; after day 28
  tumor regrowth while under no treatment: none

Source: patent publication US20200138825A1, “METHOD OF TREATING MALIGNANT RHABDOID TUMOR OF THE OVARY (MRTO)/SMALL CELL CANCER OF THE OVARY OF THE HYPERCALCEMIC TYPE(SCCOHT) WITH AN EZH2 INHIBITOR” (Epizyme, Inc., priority 2015, published 2020)
